Results reported in patent US11596591B2, “Manufacturing method for cosmetic composition of fucoidan and cosmetic composition comprising low molecular weight fucoidan using the same” (priority 2021, dated 2023).

System: mushroom tyrosinase
Experiment: in-vitro tyrosinase inhibition assay (substrate L-tyrosine)
Type: biochemical
Details: 200 μM, positive control
Description: An in-vitro tyrosinase inhibition assay was used to determine whether the whitening ingredients were directly affecting the regulation of the tyrosinase activity (using tyrosine as a substrate). The ingredients with a whitening effect mainly have a mechanism of action that inhibits some processes in the melanin biosynthetic pathway in vivo, which is the initial process in which tyrosinase is involved in the most important process in the synthetic pathway. Most of the whitening ingredients inhibit the activity of tyrosinase and reduce the production of melanin in the skin, resulting in offering a skin whitening effect. […] (1) Test method: For an in-vitro tyrosinase inhibition test of the test substance, mozuku-derived fucoidan extract, the tyrosinase inhibitory ability was measured using an in-vitro tyrosinase inhibition assay. […] The tyrosinase inhibitory effect of the test substance was evaluated by measuring the absorbance of DOPAchrome produced from the substrate L-tyrosine by the enzymatic reaction of tyrosinase. […] A microplate reader system (SpectraMax® i3x Multi Mode Detection Platform Molecular Devices, USA) was used to measure the absorbance at 475 nm. […] As determined by the Student's t test, P<0.05 was considered statistically significant. The in-vitro tyrosinase inhibition activity against the substrate L-tyrosine was calculated according to the following equation: […] […]

OC[C@H]1O[C@@H](Oc2ccc(O)cc2)[C@H](O)[C@@H](O)[C@@H]1O [arbutin]
tyrosinase inhibition activity against L-tyrosine with respect to the negative control: 50.47±0.95%
